According to ChEMBL document CHEMBL1201862, “PubChem BioAssay data set” (2004):
Activity calls are given as the source filed them.

Legend:
[1] = molecular target: T1, Bcl-2-related protein A1 (Mus musculus, UniProt Q07440); format: functional;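 note: confirmatory dose–response counterscreen on Bfl-1, used to check hits from a UBC13 polyubiquitin inhibitor campaign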
T1 sequence (Q07440 whole entry): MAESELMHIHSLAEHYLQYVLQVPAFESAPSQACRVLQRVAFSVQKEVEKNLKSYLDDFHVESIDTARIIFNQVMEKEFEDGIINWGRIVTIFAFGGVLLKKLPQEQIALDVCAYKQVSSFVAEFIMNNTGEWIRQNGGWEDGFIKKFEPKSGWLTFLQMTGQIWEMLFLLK

[2] = molecular target: T2, Ubiquitin-conjugating enzyme E2 N (Homo sapiens, UniProt P61088); format: functional
T2 sequence (P61088 whole entry): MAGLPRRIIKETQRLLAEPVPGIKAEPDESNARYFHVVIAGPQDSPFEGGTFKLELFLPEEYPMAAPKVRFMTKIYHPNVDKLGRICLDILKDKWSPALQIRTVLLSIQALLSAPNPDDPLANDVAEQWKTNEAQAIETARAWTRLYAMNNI

[3] = Luminescence Cell-Based Dose Response HTS to Identify Inhibitors of 5'UTR Stem-Loop Driven Prion Protein mRNA Translation in H4 Neuroglioblastoma Cells. [Related pubchem assays: 1827 (Project Summary), 1813 (Primary HTS)]; format: functional
[4] = inhibitors of SNCA 5'UTR-driven reporter translation, confirmation, H4 neuroglioma cells, luminescence (AID 1988); format: functional, cell-based
[5] = molecular target: T2, Ubiquitin-conjugating enzyme E2 N; format: functional; remark: listed apart in the source
[6] = inhibitors of firefly luciferase expression or activity, dose response, H4 neuroglioma cells, luminescence (AID 1990); format: functional, cell-based
[7] = inhibitors of intracellular T. cruzi replication, confirmation, NIH3T3 host cells, beta-gal luminescence (AID 2044); format: functional, cell-based;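 note: intracellular parasites grown in NIH/3T3 mouse fibroblasts as host cells; luminescent beta-galactosidase reporter signal from transgenic T. cruzi replicating inside host cells; inhibitors lower the luminescence signal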
[8] = cytotoxicity toward NIH3T3 fibroblasts, dose response, counter-screen, cell-based, ATP luminescence, mouse fibroblasts (AID 2010); format: functional;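 note: cells exposed to compound for about 90 hours before reading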
[9] = cells; format: functional
[10] = molecular target: T3, RNA-binding protein pos-1 (Caenorhabditis elegans, UniProt G5EF15); assay: inhibitors of POS-1/mex-3 RNA binding, dose response, biochemical, fluorescence polarization (AID 1964);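 note: purified POS-1 fused to maltose binding protein made in E. coli; potency of compounds blocking POS-1 binding to fluorescent RNA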
T3 sequence (G5EF15 whole entry): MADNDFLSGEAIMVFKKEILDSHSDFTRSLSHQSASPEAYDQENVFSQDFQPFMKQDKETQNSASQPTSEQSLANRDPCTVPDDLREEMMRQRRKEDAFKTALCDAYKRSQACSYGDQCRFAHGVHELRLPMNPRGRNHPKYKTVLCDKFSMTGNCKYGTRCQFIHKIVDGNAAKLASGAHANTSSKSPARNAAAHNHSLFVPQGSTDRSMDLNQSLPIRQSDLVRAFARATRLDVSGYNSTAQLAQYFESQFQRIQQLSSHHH

[11] = molecular target: T4, Zinc finger protein mex-5 (Caenorhabditis elegans, UniProt Q9XUB2); assay: MEX-5/TCR-2 RNA interaction inhibitors, dose response, biochemical, C. elegans, fluorescence polarization (AID 1960)
T4 sequence (Q9XUB2 whole entry): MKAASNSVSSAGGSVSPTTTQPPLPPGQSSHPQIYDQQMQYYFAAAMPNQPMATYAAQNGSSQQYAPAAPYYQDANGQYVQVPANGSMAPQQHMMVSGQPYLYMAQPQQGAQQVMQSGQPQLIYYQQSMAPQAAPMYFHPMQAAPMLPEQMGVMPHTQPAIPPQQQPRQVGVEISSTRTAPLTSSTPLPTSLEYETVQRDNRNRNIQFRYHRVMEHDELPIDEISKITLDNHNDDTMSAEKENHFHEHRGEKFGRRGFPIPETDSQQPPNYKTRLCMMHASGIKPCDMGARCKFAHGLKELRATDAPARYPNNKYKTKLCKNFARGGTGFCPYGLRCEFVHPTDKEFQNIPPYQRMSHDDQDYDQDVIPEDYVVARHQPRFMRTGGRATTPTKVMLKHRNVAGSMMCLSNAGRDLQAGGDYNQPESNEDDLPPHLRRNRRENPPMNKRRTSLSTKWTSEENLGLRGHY

[12] = molecular target: T5, Rac GTPase-activating protein 1 (Homo sapiens, UniProt Q9H0H5); assay: MgcRacGAP GTPase-activating activity inhibitors, confirmation, biochemical, ADP Hunter fluorescence, primary and confirmatory (AID 624330); format: functional
T5 sequence (Q9H0H5 whole entry): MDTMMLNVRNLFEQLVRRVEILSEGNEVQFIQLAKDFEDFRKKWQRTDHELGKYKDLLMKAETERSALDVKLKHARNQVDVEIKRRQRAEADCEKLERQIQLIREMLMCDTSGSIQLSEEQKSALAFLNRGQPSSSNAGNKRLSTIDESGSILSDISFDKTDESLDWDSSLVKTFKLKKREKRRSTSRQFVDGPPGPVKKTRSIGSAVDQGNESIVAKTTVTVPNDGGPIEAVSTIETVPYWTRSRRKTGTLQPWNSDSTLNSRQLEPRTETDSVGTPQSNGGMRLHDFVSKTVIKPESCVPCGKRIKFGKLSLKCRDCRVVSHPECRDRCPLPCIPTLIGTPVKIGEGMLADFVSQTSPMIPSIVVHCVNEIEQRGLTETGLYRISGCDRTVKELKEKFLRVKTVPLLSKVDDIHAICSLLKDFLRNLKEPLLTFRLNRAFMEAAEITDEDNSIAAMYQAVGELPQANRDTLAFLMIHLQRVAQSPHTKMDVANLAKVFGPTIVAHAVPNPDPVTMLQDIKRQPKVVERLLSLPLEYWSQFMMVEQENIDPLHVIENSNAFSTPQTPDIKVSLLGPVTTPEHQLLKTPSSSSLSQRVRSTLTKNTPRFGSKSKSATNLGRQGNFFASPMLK

[13] = molecular target: Nonstructural protein 1 (Influenza A virus, UniProt Q194T2); format: functional, Influenza A virus (A/California/07/2009(H1N1))
Nonstructural protein 1, sequence (Q194T2 whole entry): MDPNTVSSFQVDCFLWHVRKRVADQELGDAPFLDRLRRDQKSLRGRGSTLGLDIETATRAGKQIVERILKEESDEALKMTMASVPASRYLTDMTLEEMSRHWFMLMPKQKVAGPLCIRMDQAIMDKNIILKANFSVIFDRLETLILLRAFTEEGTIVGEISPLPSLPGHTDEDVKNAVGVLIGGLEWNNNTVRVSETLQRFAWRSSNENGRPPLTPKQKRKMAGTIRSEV

[14] = Luminescence Cell-Based Dose Retest to Confirm Inhibitors of Cancer Stem Cells. [Related pubchem assays (depositor defined):AID2717, AID2721]; format: functional; settings: Homo sapiens
[15] = growth suppression of beta-catenin-knockout colon cells, dose response, cell-based, HCT116, human colon tumor (AID 1045); format: functional;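 note: HCT116 colon tumor cells with beta catenin knocked out; cells exposed to compound for 60 hours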
[16] = growth suppression of PTEN-null colon cells, dose response, cell-based, HCT116 PTEN knockout (AID 1047); format: functional;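 note: HCT116 colon tumor cells with PTEN knocked out; cells exposed to compound for 60 hours before readout; potency for loss of cell viability measured by luminescence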
[17] = inhibitors of clade B AD8 Env fusion, dose response, cell-based, cherry-pick (AID 652062); format: functional;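 note: luciferase signal from cell-cell fusion driven by HIV-1 clade B AD8 Env; potency is for inhibitors of fusion seen as a drop in luminescence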
[18] = inhibitors of HIV Env-driven cell fusion, dose response, cherry-pick (AID 652057); format: functional, cell-based
[19] = molecular target: Cytochrome P450 2C19 (Homo sapiens, UniProt P33261); assay: Cytochrome panel assay with activity outcomes. Panel member name: p450-cyp2c19 Compounds with AC50 equal or less than 10 uM are considered active; format: functional; settings: read-out: AC50
Cytochrome P450 2C19, sequence (P33261 whole entry): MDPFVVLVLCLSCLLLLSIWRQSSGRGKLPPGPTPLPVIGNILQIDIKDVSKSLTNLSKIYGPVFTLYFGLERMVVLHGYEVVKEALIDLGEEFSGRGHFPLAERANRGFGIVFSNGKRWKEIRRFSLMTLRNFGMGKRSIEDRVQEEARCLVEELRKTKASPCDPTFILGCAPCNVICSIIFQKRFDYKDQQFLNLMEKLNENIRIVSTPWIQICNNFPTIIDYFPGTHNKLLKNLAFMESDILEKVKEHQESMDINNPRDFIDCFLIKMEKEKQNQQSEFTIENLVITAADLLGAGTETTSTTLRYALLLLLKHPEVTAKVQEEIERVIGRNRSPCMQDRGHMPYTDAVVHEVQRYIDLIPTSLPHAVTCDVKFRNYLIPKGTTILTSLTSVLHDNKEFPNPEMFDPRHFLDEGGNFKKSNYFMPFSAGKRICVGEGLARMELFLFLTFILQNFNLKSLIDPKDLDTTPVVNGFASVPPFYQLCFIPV

CC1(C)Cc2c(sc(NC(=O)COc3ccc(Cl)cc3Cl)c2C(N)=O)C(C)(C)N1
IC50 [1]: > 20 µM (inactive) | IC50 [2]: 4.55 µM (active) | EC50 [3]: 18.7 µM (active) | EC50 [4]: > 120 µM (not active) | IC50 [5]: 2.86 µM (active) | EC50 [6]: 17.3 µM (active)

O=C(CCCCn1c(=O)c2ccccc2n(Cc2ccccc2)c1=O)NC1CCN(Cc2ccccc2)CC1
EC50 [7]: 0.695 µM (active) | IC50 [1]: > 20 µM (inactive) | IC50 [2]: 9.28 µM (active) | EC50 [8]: > 60 µM (not active) | IC50 [5]: 5.17 µM (active)

Cc1cccc(OCCCCc2c(C)n[nH]c2C)c1
IC50 [9]: 9.67 µM (active)

N=C1c2ccccc2CN1NC(=O)CC12CC3CC(CC(C3)C1)C2
EC50 [10]: > 300 µM (not active) | EC50 [11]: > 300 µM (not active)

C#CCOCCOCCOCCNc1nc(N2CCN(C(=O)[C@H](CCCCN)n3cc(CN)nn3)CC2)nc(N2CCN(C(=O)[C@H](CCC(=O)O)n3cc([C@@H](N)CCCCN)nn3)CC2)n1
IC50 [12]: 190 µM (active) | IC50 [1]: > 20 µM (inactive) | IC50 [2]: 2.85 µM (active) | IC50 [5]: 2.79 µM (active)

CC1(C)SC2C(C(=O)O)N=C(Cc3ccccc3)N2C1C(=O)O (configuration not stated)
IC50 [13]: 12.2 µM (active)

CCOC(=O)/C(C#N)=C1/C(=O)N(Cc2ccccc2)c2ccccc21
IC50 [12]: 61 µM (active) | IC50 [13]: 99.6 µM (active)

CCN=C(S)N=Nc1c(O)[nH]c2ccc(C(C)C)cc12
IC50 [1]: > 20 µM (inactive) | IC50 [2]: 6.7 µM (active) | IC50 [5]: 2.49 µM (active)

COc1ccc(-c2sc3ccccc3c2-c2ccc(OCCN3CCOCC3)cc2)cc1
IC50 [1]: > 20 µM (inactive) | IC50 [2]: 15.1 µM (active) | AC50 [14]: 0.842 µM (active) | IC50 [5]: > 20 µM (inactive)

O=C1c2cccc3cccc(c23)C(=O)N1CCN1CCN(CC(O)COc2ccc3ccccc3c2)CC1 (configuration not stated)
EC50 [15]: 9.47 µM (active) | IC50 [1]: > 20 µM (inactive) | IC50 [2]: 2.49 µM (active) | AC50 [14]: 5.08 µM (active) | IC50 [5]: 3.02 µM (active) | EC50 [16]: 12 µM (active)

COc1cccc(NC(=O)N(C)C[C@@H]2OCc3ccccc3-c3c(n(C)c4ccccc34)C(=O)N([C@@H](C)CO)C[C@@H]2C)c1
AC50 [17]: < 0.26 µM (active) | AC50 [18]: < 0.26 µM (active)

Cc1ccc(S(=O)(=O)N[C@H]2C=C[C@H](CC(=O)N3CCC(Cc4ccccc4)CC3)O[C@H]2CO)cc1
AC50 [17]: 34.3 µM (active) | AC50 [18]: 69.4 µM (active)

O=C(CCCCn1c(=O)c2ccccc2n(Cc2ccccc2F)c1=O)NC1CCN(Cc2ccccc2)CC1
IC50 [1]: > 20 µM (inactive) | IC50 [2]: 11.3 µM (active) | IC50 [5]: 5.47 µM (active)

Cc1ccc(/C=N/NC(=O)c2ccncc2)o1
IC50 [9]: 1.18 µM (active)

CCNc1nc(NCC)nc(N(C)N)n1
AC50 [19]: 0.00141 µM (inconclusive) | IC50 [13]: 12.7 µM (active)

CCOC(=O)N/N=C\c1ccc([N+](=O)[O-])s1
IC50 [9]: 34 µM (active)

COCCN=C(S)N=Nc1c(O)[nH]c2c(C)cc(C)cc12
IC50 [1]: > 20 µM (inactive) | IC50 [2]: 6.28 µM (active) | IC50 [5]: 0.561 µM (active)

C=CCOc1ccc(CNc2ccc(NC(=O)CCC)cc2)cc1OCC
IC50 [13]: > 100 µM (active)

CN(C)c1ccc(/C=C2\N=C(C(C)(C)C)OC2=O)cc1
EC50 [10]: 7.17 µM (active) | IC50 [9]: 11.3 µM (active) | EC50 [11]: 22.3 µM (inconclusive)

CCc1ccc(NC(=O)/C(C#N)=C/c2cc3ccc(C)cc3nc2N2CCOCC2)cc1
EC50 [10]: 47.9 µM (active) | EC50 [11]: 113 µM (active)

Cc1cccc(NC(=O)c2cc3ccccc3o2)c1
IC50 [9]: 40.5 µM (active)

O=C(CNCc1ccccn1)Nc1cc(S(=O)(=O)N2CCCCC2)ccc1Cl
IC50 [13]: 6.83 µM (active)

O=C(NNc1nc2cc3c(cc2s1)OCCO3)c1ccccc1
IC50 [9]: 48.3 µM (active)
